row,SMILES,melting point [°C]
1,Oc1ccc2c(CCCCN3CC=C(c4cccs4)CC3)c[nH]c2c1,181
2,CCC(C(=O)O)c1ccc(C(CC)C(=O)O)cc1 (centres undefined),198 to 202
3,CCOC(=O)c1c(N)n(CC)c2nc(Cl)ccc2c1=O,252
4,CCCCNc1n[nH]c2c1c(=O)n(CCC)c1ccccc21,169 to 172
5,OC[C@]1(c2ccccc2)O[C@H]1c1ccccc1,88 to 89
6,Clc1ccc2nc3c(nc2c1)N1CCCCC1CO3 (centres undefined),147 to 149
7,CCOC(=O)/C=C/c1cc(OCc2ccccc2)ccc1OCC,124 to 125
8,COC1=C(C(=O)NNC(=O)Cc2ccc(F)cc2)CN(C(C)C)C1=O,157 to 158
9,CCCCc1nn(-c2ccc(C(F)(F)F)cn2)cc1CCCOc1nn(C)cc1CC(=O)O,125 to 126
10,COc1ccc(-c2ccccc2C(SCC(=O)c2ccccc2)C(O)C(N)=O)cc1 (centres undefined),132 to 134
11,CC(c1oc2ccccc2c(=O)c1-c1cccc(F)c1)n1nc(-c2ccc(N)cc2)c2c(N)ncnc21 (centres undefined),91 to 94
12,CCCCCCC(C)Oc1ccc(C(=O)O)cc1C#N (centres undefined),98.1 to 99.9
13,CCOC(=O)c1cc(CCc2cc3c(s2)-n2c(C)nnc2CN=C3c2ccccc2Cl)ccc1CC(=O)O,128 to 132
14,CC(O)(CC(=O)O)c1ccc(-c2ccc(F)cc2)cc1 (centres undefined),81 to 82
15,CC(C)NCC(O)COc1cc(-c2ccccc2)nc2ccccc12 (racemic),109 to 111
16,O=C(ON1C(=O)CCC1=O)c1cccnc1,129 to 131
17,COCc1ccc(Oc2cc(OC)c3[nH]c(C4=NCC(CC(N)=O)S4)cc3c2)cn1 (centres undefined),135 to 136
18,COc1ccc2c(c1)CCC(C(O)C(=O)O)C2=O (centres undefined),212 to 214
19,CCCCc1nn(-c2cc(N)ccc2Br)c(=O)n1Cc1ccc(-c2ccccc2S(=O)(=O)NC(C)(C)C)cc1F,103 to 105

# Now from value to compound:
row,melting point [°C],SMILES
1,161 to 162,COc1c(NC(=O)CC(C)(C)C)c(C)c(C)c2c1C(c1ccc(C(C)C)cc1)CO2 (centres undefined)
2,133 to 135,Cc1c(CCl)ncn1C(c1ccccc1)(c1ccccc1)c1ccccc1
3,158 to 159,COc1cc(OCc2cn(-c3ccc(C(F)(F)F)cn3)nc2C)ccc1CCC(=O)O
4,243 to 244,CC(=O)N1CC=C(c2cc3c(cc2F)c(=O)c2c(=O)[nH]sc2n3C2CC2)CC1
5,128 to 131,CN(N)c1nc2ccccc2o1
6,105,CN(CCCCNC(=O)c1cc2ccccc2s1)C1CCc2ncsc2C1 (centres undefined)
7,90 to 92,CCOC(=O)c1nnnn1Cc1ccccc1[N+](=O)[O-]
8,106,Cc1cccc(-c2nc(C(C)(C)C)n(C)n2)n1
9,83 to 84,Cc1c(C)n(CC(F)(F)F)c2c(OCc3ccccc3)nncc12
10,112 to 115,CCCCOCCOc1ccc(-c2ccc3c(c2)C=C(C(=O)Nc2ccc(SCc4ncon4)cc2)CCN3CC(C)C)cc1
11,> 300,CCCn1c(=O)[nH]c(=O)c2nc(-c3ccc(/C=C/C(=O)O)cc3)[nH]c21
12,56 to 57,C(=C1CCC2(CC1)OCCO2)c1ccc(OCc2ccccc2)cc1
13,168 to 171,COc1cc2nc(NC3CCC(N(C)C)CC3)c(-c3ccccn3)nc2cc1OC (centres undefined)
14,53 to 65,CC(=NOCCOc1ccc(CC2SC(=O)NC2=O)cc1)c1cc(C)c(O)c(C)c1 (centres undefined)
15,205,COc1ccc2cc(C(C)C(O)(P(=O)(O)O)P(=O)(O)O)ccc2c1 (centres undefined)
16,49 to 52,COCc1cc(N)no1
17,204,COc1ccc(N2CCN(c3ccc(NC(=O)Oc4ccccc4)cc3)CC2)cc1
18,218 to 219,CCOC(=O)c1cccc2c3c([nH]c12)CN(CC(=O)NC(C(=O)C(F)(F)F)C(C)C)C=C3 (centres undefined)
19,140 to 142,CCNCc1ccc(O)c(C(CCN(C(C)C)C(C)C)c2ccccc2)c1 (centres undefined)
20,245 to 250,O=C(Nc1ccc2oc(N3CCOCC3)cc(=O)c2c1)OCc1ccccc1

# From a melting point compilation (Tetko et al.; mined from patent text by program, amines drawn as free bases though some values may be those of a salt)
